Experiments:
[1] = test system: inflammatory cells recruited to the inflamed synovial fluid of the knee joints; test: Rabbit model of destructive joint inflammation (rabbit LPS study); format: in vivo, New Zealand rabbits; details: intra-articular LPS 10 ng, dosed orally 2 hours before and 4 hours after LPS, lavage at sixteen hours
Protocol: A rabbit LPS study was conducted essentially as described in Podolin, et al. J. Immunol. 169(11):6435-6444 (2002). Female New Zealand rabbits (approximately 2 kilograms) were treated intra-articularly in both knees with LPS (10 ng). The compound of interest, for example 1.016, (formulated in 1% methocel) or vehicle (1% methocel) was dosed orally at a 5 ml/kg dose volume at two times (2 hours before the intra-articular LPS injection and 4 hours after the intra-articular LPS injection). Sixteen hours after the LPS injection, knees were lavaged and cells counts were performed. Beneficial effects of treatment were determined by reduction in the number of inflammatory cells recruited to the inflamed synovial fluid of the knee joints.

CCR1 = biological target: T1, CCR1 (Homo sapiens, UniProt P32246); test: Chemotaxis assay (CTX): inhibition of CCR1 mediated migration of THP-1 or monocyte cells; format: cell-based; details: class symbols; activity for either the chemotaxis assay or binding assay
T1 construct: host or cells: THP-1 cells or isolated human CD14+ monocytes
T1 sequence (P32246 1-355): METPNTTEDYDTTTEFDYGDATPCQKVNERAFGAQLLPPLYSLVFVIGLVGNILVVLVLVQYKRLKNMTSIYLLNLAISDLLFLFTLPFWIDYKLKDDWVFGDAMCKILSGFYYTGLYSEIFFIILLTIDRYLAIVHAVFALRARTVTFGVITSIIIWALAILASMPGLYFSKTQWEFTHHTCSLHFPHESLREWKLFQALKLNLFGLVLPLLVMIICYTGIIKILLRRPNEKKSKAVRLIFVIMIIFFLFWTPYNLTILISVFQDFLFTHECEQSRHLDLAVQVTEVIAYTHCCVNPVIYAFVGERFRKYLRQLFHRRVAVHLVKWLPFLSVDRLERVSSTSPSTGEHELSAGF
Protocol: THP-1 cells were obtained from ATCC (TIB-202) and cultured as a suspension in RPMI-1640 medium supplemented with 2 mM L-glutamine, 1.5 g/L sodium bicarbonate, 4.5 g/L glucose, 10 mM HEPES, 1 mM sodium pyruvate, 0.05% 2-mercaptoethanol and 10% FBS. Cells were grown under 5% CO2/95% air, 100% humidity at 37° C. and subcultured twice weekly at 1:5 (cells were cultured at a density range of 2×10^5 to 2×10^6 cells/mL) and harvested at 1×10^6 cells/mL. THP-1 cells express CCR1 and can be used in CCR1 binding and functional assays.
Monocytes were isolated from human buffy coats using the Miltenyi bead isolation system (Miltenyi, Auburn, Calif.). Briefly, following a Ficoll gradient separation to isolate peripheral blood mononuclear cells, cells were washed with PBS and the red blood cells lysed using standard procedures. Remaining cells were labeled with anti-CD14 antibodies coupled to magnetic beads (Miltenyi Biotech, Auburn, Calif.). Labeled cells were passed through AutoMACS (Miltenyi, Auburn, Calif.) and positive fraction collected. Monocytes express CCR1 and can be used in CCR1 binding and functional assays.
Chemotaxis assays were performed using 5 μm pore polycarbonate, polyvinylpyrrolidone-coated filters in 96-well chemotaxis chambers (Neuroprobe; Gaithersburg, Md.) using chemotaxis buffer (Hank's balanced salt solution (HBSS) and 1% FBS). CCR1 chemokine ligands (i.e., MIP-1α, CCL15/Leukotactin; R&D Systems; Minneapolis, Minn.) are use to evaluate compound mediated inhibition of CCR1 mediated migration. Other chemokines (i.e., SDF-1α; R&D Systems; Minneapolis, Minn.) are used as specificity controls. The lower chamber was loaded with 29 μl of chemokine (i.e., 0.1 nM CCL15/Leukotactin) and varying amounts of compound; the top chamber contained 100,000 THP-1 or monocyte cells in 20 μl. The chambers were incubated 1-2 hours at 37° C., and the number of cells in the lower chamber quantified either by direct cell counts in five high powered fields per well or by the CyQuant assay (Molecular Probes), a fluorescent dye method that measures nucleic acid content, and by measuring with a Spectrafluor Plus (Tecan). The computer program Prism from GraphPad, Inc. (San Diego, Calif.) was used to calculate IC50 values. IC50 values are those compound concentrations required to inhibit the number of cells responding to a CCR1 agonist by 50%.

Row | Structure (SMILES) | reduction in the number of inflammatory cells recruited to the inflamed synovial fluid of the knee joints [1] | IC50 (CCR1) [nM]
1 | Cc1c(Cl)c(C(F)(F)F)nn1C(CO)C(=O)N1CCCc2c1cnn2-c1ccc(F)cc1 (stereo not drawn) [Example 1.016] | significant reduction in recruited inflammatory cells | 
2 | Cc1c(Cl)c(C2=NCCN2)nn1CC(=O)N1CCCc2c1cnn2-c1ccc(F)cc1 |  | < 1000
3 | Cc1c(Cl)c(C(F)F)nn1CC(=O)N1CCCc2c1cnn2-c1ccc(F)cc1 |  | < 1000

— patent US9181241B2, “Antagonists of chemokine receptors” (ChemoCentryx, Inc., priority 2012, dated 2015)
